In patent publication US10851065B2 (Eisai R&D Management Co., Ltd., priority 2015, dated 2020) one finds GI50 data, which are given here for 19 compounds.

The test system of assay [1] is MCF7-Y537S cells (MCF7 ER-alpha Y537S mutant). Kind of assay: In vitro proliferation (viability) assay, CellTiter-Glo, MCF7-Y537S cells. The assay is classed as cell-based. Conditions: Homo sapiens; MCF7-Y537S cells, 6 days, CTG vs day 0; mean ± SD-type spread (n); read-out: GI50 MUT (Y537S). How it is done:
(§1) MCF7 BUS cells (Coser, et al., (2003) PNAS 100(24): 13994-13999) were maintained in Dulbecco's Modified Eagle Medium supplemented with 10% FBS, 4 mM L-glutamine and 1× non-essential amino acids. Lenti-X 293T cells (Clontech, Cat #632180) were routinely cultured in Dulbecco's Modified Eagle Medium supplemented with 10% FBS.
(§2) The QuikChange II XL Site-Directed Mutagenesis Kit (Agilent Technologies, Cat #200523) was used to generate Y537S, Y537C, Y537N and D538G mutations within the ERα exon 8. Wild-type ESR1 cDNA (GeneCopoeia Inc., Cat #GC-A0322, accession no. NM 000125) was used as a template with the following mutagenesis primers (where the underlined nucleotides represent site mutations); Y537S: F-AAGAACGTGGTGCCCCTCTCTGACCTGCTGCTGGAGATG (SEQ ID NO: 1), R-CATCTCCAGCAGCAGGTCAGAGAGGGGCACCACGTTCTT (SEQ ID NO: 2); Y537N: F-AAGAACGTGGTGCCCCTCAATGACCTGCTGCTGGAGATG (SEQ ID NO: 3), R-CATCTCCAGCAGCAGGTCATTGAGGGGCACCACGTTCTT (SEQ ID NO: 4); Y537C: F-AAGAACGTGGTGCCCCTCTGTGACCTGCTGCTGGAGATG (SEQ ID NO: 5), R-CATCTCCAGCAGCAGGTCACAGAGGGGCACCACGTTCTT (SEQ ID NO: 6); D538G: F-AACGTGGTGCCCCTCTATGGCCTGCTGCTGGAGATGCTG (SEQ ID NO: 7), R-CAGCATCTCCAGCAGCAGGCCATAGAGGGGCACCACGTT (SEQ ID NO: 8). WT and mutant ESR1 cDNAs were cloned into the designation lentiviral vector pLenti6.3/V5-Dest (Invitrogen, Cat #V533-06). To make lentivirus, DNAs (WT and mutant ESR1) were co-transfected with packaging plasmids into Lenti-X 293T cells using TransIT (Mirus, Cat #MIR 2700). 48 h post-transfection, virus containing media was filtered and added to MCF7 cells in the presence of 8 µg/ml polybrene overnight. Two days following infection, cells were placed under selection with 10 μg/ml blasticidin for 2 weeks for stable expression.
(§3) MCF7-WT and -Y537S cells were seeded at 1500 cells/well in black-walled 96-well plates (assay plates, Costar, Cat #3904). In parallel, cells were also seeded in a separate 96-well plate (8 wells/cell line, control plate) for which a CTG (CellTiter-Glo® Luminescent Viability Assay, Promega, Cat #G7572) was measured the following day (day 0 reading). The day 0 reading was used for the GI50 calculation at the termination of the experiment. The day following seeding, compounds were added to assay plates. Briefly, a 1:4 serial dilution was prepared in DMSO at 200× final concentration for a total of 10 concentrations (9 dilutions containing compound and one is DMSO only). Serially diluted compounds were pipetted into medium to prepare a compound-medium mix at 10× final concentration. 10 μl of compound-medium mix was added to MCF7-WT and -Y537S cells at 3 wells/concentration (triplicate for each concentration). On day 3, media/compound was removed and replaced with fresh media/compound as described above. On day 6, CTG was measured and compared to day 0 readings from control plate to assess GI50.
A general note: Cellular ATP, detected with luciferase, serves as a proxy for viable cell number.

Assay [2] concerns MCF7-WT cells (MCF7 ER-alpha wildtype). Kind of assay: In vitro proliferation (viability) assay, CellTiter-Glo, MCF7-WT cells. The assay is classed as cell-based. Conditions: Homo sapiens; MCF7-WT cells, 6 days, CTG vs day 0; mean ± SD-type spread (n); read-out: GI50 WT. How it is done: as §1, §2, §3

For `CC/C(=C(/c1ccc(OCCNC/C=C\C(=O)N(C)C)cc1)c1ccc2[nH]ncc2c1)c1ccccc1` [Compound 22, (Z)-4-((2-(4-((E)-1-(1H-indazol-5-yl)-2-phenylbut-1-en-1-yl)phenoxy)ethyl)amino)-N,N-dimethylbut-2-enamide], the GI50 (as a rule, the concentration at which growth is held to half of that of the control) amounted to 21.6 ± 0.26 nM in assay [1] and 2.42 ± 1.95 nM in assay [2].
Turning to `O=C(/C=C/CNCCOc1ccc(/C(=C(\c2ccccc2)C2CCC2)c2ccc3[nH]ncc3c2)cc1)N1CCOCC1` [Compound 23, (E)-4-((2-(4-((E)-2-cyclobutyl-1-(1H-indazol-5-yl)-2-phenylvinyl)phenoxy)ethyl)amino)-1-morpholinobut-2-en-1-one], the GI50 turned out to be 24.2 ± 6.57 nM in assay [1] and 1.52 ± 1.05 nM in assay [2].
Taken in the same sequence, the figures for `CN(C)C(=O)/C=C/CNCCOc1ccc(/C(=C(\c2ccccc2)C2CCC2)c2ccc3[nH]ncc3c2F)cc1` [Compound 24, (E)-4-((2-(4-((E)-2-cyclobutyl-1-(4-fluoro-1H-indazol-5-yl)-2-phenylvinyl)phenoxy)ethyl)amino)-N,N-dimethylbut-2-enamide] were 19.9 ± 3.58 nM and 1.05 ± 0.3 nM.
Taken in the same sequence, the figures for `CC/C(=C(/c1ccc(OCCNC/C=C/C(=O)N(C)C)nc1)c1ccc2[nH]ncc2c1)c1ccccc1` [Compound 25, (E)-4-((2-((5-((Z)-1-(1H-indazol-5-yl)-2-phenylbut-1-en-1-yl)pyridin-2-yl)oxy)ethyl)amino)-N,N-dimethylbut-2-enamide] were 19.6 ± 4.26 nM and 1.15 ± 0.3 nM.
Taken in the same sequence, the figures for `CC/C(=C(/c1ccc(OCCNC/C=C/C(=O)N(C)CCO)cc1)c1ccc2[nH]ncc2c1)c1ccccc1C` [Compound 26, (E)-4-((2-(4-((E)-1-(1H-indazol-5-yl)-2-(o-tolyl)but-1-en-1-yl)phenoxy)ethyl)amino)-N-(2-hydroxyethyl)-N-methylbut-2-enamide] were 32.5 ± 16.7 nM and 2.18 ± 0.87 nM.
On to `CC/C(=C(/c1ccc(OCCNC/C=C/C(=O)N(C)CCO)cc1)c1ccc2[nH]nc(F)c2c1)c1ccc(F)cc1Cl` [Compound 28, (E)-4-((2-(4-((E)-2-(2-chloro-4-fluorophenyl)-1-(3-fluoro-1H-indazol-5-yl)but-1-en-1-yl)phenoxy)ethyl)amino)-N-(2-hydroxyethyl)-N-methylbut-2-enamide], for which the GI50 in assay [1] was 69.7 nM; in assay [2] it was 3.16 nM.
Take `CC/C(=C(/c1ccc(OCCNC/C=C/C(=O)N(C)C)cc1)c1ccc2[nH]ncc2c1)c1ccc(C(C)C)cc1` [Compound 29, (E)-4-((2-(4-((E)-1-(1H-indazol-5-yl)-2-(4-isopropylphenyl)but-1-en-1-yl)phenoxy)ethyl)amino)-N,N-dimethylbut-2-enamide]: the 50% growth inhibitory concentration (GI50) in assay [1] amounted to 58.7 nM; in assay [2], 3.37 nM.
For the compound `CN(C)C(=O)/C=C/CNCCOc1ccc(/C(=C(/CCCl)c2ccccc2)c2ccc3[nH]ncc3c2)cc1` [Compound 30, (E)-4-((2-(4-((E)-4-chloro-1-(1H-indazol-5-yl)-2-phenylbut-1-en-1-yl)phenoxy)ethyl)amino)-N,N-dimethylbut-2-enamide], the concentration for 50% growth inhibition (GI50) in assay [1] turned out to be 61.3 ± 9.98 nM; in assay [2], 2.74 ± 1.06 nM.
As to `CC/C(=C(/c1ccc(OCCNC/C=C/C(=O)N(C)C)cc1)c1ccc2[nH]ncc2c1)c1ccccc1OC` [Compound 31], the 50% growth inhibitory concentration (GI50) was 13.1 nM in assay [1] and 0.83 nM in assay [2].
With `CC/C(=C(/c1ccc(OCCNC/C=C/C(=O)N(C)C)cc1)c1ccc2[nH]ncc2c1)c1ccccc1OC(F)F` [Compound 32, (E)-4-((2-(4-((E)-2-(2-(difluoromethoxy)phenyl)-1-(1H-indazol-5-yl)but-1-en-1-yl)phenoxy)ethyl)amino)-N,N-dimethylbut-2-enamide], the concentration for 50% growth inhibition (GI50) is 22.9 nM in assay [1] and 1.28 nM in assay [2].
Taken in the same sequence, the figures for `CC/C(=C(/c1ccc(OCCNC/C=C/C(=O)N(C)C)cc1)c1ccc2[nH]ncc2c1)c1ccccc1OC(F)(F)F` [Compound 33, (E)-4-((2-(4-((E)-1-(1H-indazol-5-yl)-2-(2-(trifluoro-methoxy)phenyl)but-1-en-1-yl)phenoxy)ethyl)amino)-N,N-dimethylbut-2-enamide] were 29.3 nM and 2.5 nM.
Taken in the same sequence, the figures for `CC/C(=C(/c1ccc(OCCNC/C=C/C(=O)N(C)C)cc1)c1ccc2[nH]ncc2c1)c1ccccc1C(C)C` [Compound 34, (E)-4-((2-(4-((E)-1-(1H-indazol-5-yl)-2-(2-isopropylphenyl)but-1-en-1-yl)phenoxy)ethyl)amino)-N,N-dimethylbut-2-enamide] were 93.6 nM and 10.5 nM.
Taken in the same sequence, the figures for `CC/C(=C(/c1ccc(OCCNC/C=C/C(=O)N(C)C)cc1)c1ccc2[nH]ncc2c1)c1ccccc1CC` [Compound 35, (E)-4-((2-(4-((E)-2-(2-ethylphenyl)-1-(1H-indazol-5-yl)but-1-en-1-yl)phenoxy)ethyl)amino)-N,N-dimethylbut-2-enamide] were 47.8 ± 15.6 nM and 6.22 ± 0.58 nM.
Consider `CC/C(=C(/c1ccc(OCCNC/C=C/C(=O)N(C)C)cc1)c1ccc2[nH]ncc2c1)c1ccccc1C` [Compound 36, (E)-4-((2-(4-((E)-1-(1H-indazol-5-yl)-2-(o-tolyl)but-1-en-1-yl)phenoxy)ethyl)amino)-N,N-dimethylbut-2-enamide], for which the results for the GI50 in assay [1] and in assay [2] were 25 ± 21.9 nM and 4.96 ± 3.1 nM, respectively.
Taken in the same sequence, the figures for `CC/C(=C(/c1cnc(OCCNC/C=C/C(=O)N(C)C)nc1)c1ccc2[nH]ncc2c1)c1ccccc1` [Compound 38, (E)-4-((2-((5-((Z)-1-(1H-indazol-5-yl)-2-phenylbut-1-en-1-yl)pyrimidin-2-yl)oxy)ethyl)amino)-N,N-dimethylbut-2-enamide] were 159 ± 128 nM and 8.23 ± 5.32 nM.
`O=C(/C=C/CNCCOc1ccc(/C(=C(\c2ccccc2)C2CCC2)c2ccc3[nH]ncc3c2)cc1)N1CCC1` [Compound 39, (E)-1-(azetidin-1-yl)-4-((2-(4-((E)-2-cyclobutyl-1-(1H-indazol-5-yl)-2-phenylvinyl)phenoxy)ethyl)amino)but-2-en-1-one]: the values for the GI50 in assay [1] and in assay [2] were 31.8 ± 4.85 nM and 1.79 ± 0.47 nM, respectively.
In the same order, the values of `O=C(/C=C/CNCCOc1ccc(/C(=C(\c2ccccc2)C2CCC2)c2ccc3[nH]nc(F)c3c2)cc1)N1CCC1` [Compound 40, (E)-1-(azetidin-1-yl)-4-((2-(4-((E)-2-cyclobutyl-1-(3-fluoro-1H-indazol-5-yl)-2-phenylvinyl)phenoxy)ethyl)amino)but-2-en-1-one] are 94.5 ± 20.8 nM and 7.52 ± 4.52 nM.
Taken in the same sequence, the figures for `CN(CCO)C(=O)/C=C/CNCCOc1ccc(/C(=C(\c2ccccc2)C2CCC2)c2ccc3[nH]ncc3c2)cc1` [Compound 41, (E)-4-((2-(4-((E)-2-cyclobutyl-1-(1H-indazol-5-yl)-2-phenylvinyl)phenoxy)ethyl)amino)-N-(2-hydroxyethyl)-N-methylbut-2-enamide] were 66.3 nM and 3.84 nM.
In the same order, the values of `Cc1ccccc1/C(=C(\c1ccc(OCCNC/C=C/C(=O)N2CCC2)cc1)c1ccc2[nH]ncc2c1)C1CCC1` [Compound 42, (E)-1-(azetidin-1-yl)-4-((2-(4-((E)-2-cyclobutyl-1-(1H-indazol-5-yl)-2-(o-tolyl)vinyl)phenoxy)ethyl)amino)but-2-en-1-one] are 69.4 ± 29.1 nM and 2.68 ± 1.66 nM.
